From ChEMBL document CHEMBL1201862, “PubChem BioAssay data set” (2004)
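Interpolation was linear, between the two tested concentrations surrounding the appropriate level; five concentrations were tested over 48 hours in 96-well plates. GI50 = concentration required for 50% inhibition of growth.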 Activity calls are given as the source filed them. Rule as the data show it: active = GI50 up to about 1.1 µM and inactive = higher.

How the values were obtained:
Experiment in all cases: NCI-60 cell line screen, 48 h
COLO 205 = test system: COLO 205
KM12 = test system: KM12
SK-MEL-28 = test system: SK-MEL-28
SNB-75 = test system: SNB-75
SK-MEL-5 = test system: SK-MEL-5
UO-31 = test system: UO-31
786-0 = test system: 786-0
TK-10 = test system: TK-10
A549 = test system: A549
SN12C = test system: SN12C
UACC-62 = test system: UACC-62
NCI/ADR-RES = test system: NCI/ADR-RES
SW-620 = test system: SW-620
SF-268 = test system: SF-268
MDA-N = test system: MDA-N
MCF7 = test system: MCF7
CCRF-CEM = test system: CCRF-CEM
OVCAR-5 = test system: OVCAR-5
HOP-92 = test system: HOP-92
HCC 2998 = test system: HCC 2998
SK-OV-3 = test system: SK-OV-3
MDA-MB-231 = test system: MDA-MB-231
PC-3 = test system: PC-3
T47D = test system: T47D
OVCAR-3 = test system: OVCAR-3
SK-MEL-2 = test system: SK-MEL-2
SNB-19 = test system: SNB-19
Hs-578T = test system: Hs-578T
K562 = test system: K562
HCT-15 = test system: HCT-15
A498 = test system: A498
MDA-MB-435 = test system: MDA-MB-435
U-251 = test system: U-251
M14 = test system: M14
HCT-116 = test system: HCT-116
NCI-H460 = test system: NCI-H460
HT-29 = test system: HT-29
NCI-H23 = test system: NCI-H23
MOLT-4 = test system: MOLT-4
RPMI-8226 = test system: RPMI-8226
CAKI-1 = test system: CAKI-1
UACC-257 = test system: UACC-257
DU-145 = test system: DU-145
OVCAR-4 = test system: OVCAR-4
SF-539 = test system: SF-539
OVCAR-8 = test system: OVCAR-8
LOX IMVI = test system: LOX IMVI
IGROV-1 = test system: IGROV-1
HOP-62 = test system: HOP-62
SF-295 = test system: SF-295
Malme-3M = test system: Malme-3M
NCI-H522 = test system: NCI-H522
ACHN = test system: ACHN
SR = test system: SR
BT-549 = test system: BT-549
HL-60 = test system: HL-60

Measured: GI50

COc1ccc([N+](=O)[O-])c2c(NCCCN(C)C)c(C)c(C)nc12
22.4 µM: HCT-15
inactive: COLO 205 26.2 µM | KM12 > 100 µM | SK-MEL-28 > 100 µM | SNB-75 36.1 µM | SK-MEL-5 46.8 µM | UO-31 > 100 µM | 786-0 > 100 µM | TK-10 > 100 µM | A549 99.3 µM | SN12C > 100 µM | UACC-62 81.3 µM | NCI/ADR-RES > 100 µM | SW-620 54 µM | SF-268 > 100 µM | MDA-N > 100 µM | MCF7 49.9 µM | CCRF-CEM > 100 µM | OVCAR-5 > 100 µM | HOP-92 23.9 µM | HCC 2998 > 100 µM | SK-OV-3 > 100 µM | MDA-MB-231 57.5 µM | PC-3 83 µM | T47D 77.3 µM | OVCAR-3 96.6 µM | SK-MEL-2 > 100 µM | SNB-19 44.8 µM | Hs-578T > 100 µM | K562 37.6 µM | A498 > 100 µM | MDA-MB-435 > 100 µM | U-251 > 100 µM | M14 > 100 µM | HCT-116 36.2 µM | NCI-H460 34.4 µM | HT-29 42.6 µM | NCI-H23 44.8 µM | MOLT-4 > 100 µM | RPMI-8226 31.8 µM | CAKI-1 > 100 µM | UACC-257 > 100 µM | DU-145 > 100 µM | OVCAR-4 27.8 µM | SF-539 > 100 µM | OVCAR-8 > 100 µM | LOX IMVI > 100 µM | IGROV-1 36.6 µM | HOP-62 89.5 µM | SF-295 90.8 µM | Malme-3M 45.1 µM | NCI-H522 27.9 µM | ACHN > 100 µM | SR 14.3 µM | BT-549 56.6 µM | HL-60 42.9 µM
